Values after ≈ are worked out from the molar mass of the structure shown.
How the values were obtained:
Assay in all cases: MIC (MHK) by agar serial dilution on Iso-Sensitest agar
Assay type in all cases: cell-based
[1] = test system: Klebsiella pneumoniae 8085; conditions: strain 8085, ca. 10⁴ colony-forming particles per spot, 37°C, ca. 20 h, read-out: MHK-Werte
Description: (§1) Die minimalen Hemmkonzentrationen (MHK) der erfindungsgemäßen Verbindungen wurden per Reihenverdünnungsverfahren auf Iso-Sensitest Agar (Oxoid) bestimmt. Für jede Prüfsubstanz wurde eine Reihe von Agarplatten hergestellt, die bei jeweils doppelter Verdünnung abfallende Konzentrationen des Wirkstoffs enthielten. Die Agarplatten wurden mit einem Multipoint-Inokulator (Denley) beimpft. Zum Beimpfen wurden Übernachtkulturen der Erreger verwandt, die zuvor so verdünnt wurden, daß jeder Impfpunkt ca. 10⁴ koloniebildende Partikel enthielt. Die beimpften Agarplatten wurden bei 37°C bebrütet, und das Keimwachstum wurde nach ca. 20 Stunden abgelesen. Der MHK-Wert (µg/ml) gibt die niedrigste Wirkstoffkonzentration an, bei der mit bloßem Auge kein Wachstum zu erkennen war.
(§2) In der nachstehenden Tabelle sind die MHK-Werte einiger der erfindungsgemäßen Verbindungen aufgeführt. Tabelle

[2] = test system: E. coli Neumann; conditions: Escherichia coli, strain Neumann, ca. 10⁴ colony-forming particles per spot, 37°C, ca. 20 h, read-out: MHK-Werte
Description: as §1, §2

[3] = test system: E. coli ATCC 25922; conditions: Escherichia coli, ATCC25922, strain ATCC 25922, ca. 10⁴ colony-forming particles per spot, 37°C, ca. 20 h, read-out: MHK-Werte
Description: as §1, §2

[4] = test system: Micrococcus luteus 9341; conditions: strain 9341, ca. 10⁴ colony-forming particles per spot, 37°C, ca. 20 h, read-out: MHK-Werte
Description: as §1, §2

[5] = test system: Acinetobacter 14068; conditions: strain 14068, ca. 10⁴ colony-forming particles per spot, 37°C, ca. 20 h, read-out: MHK-Werte
Description: as §1, §2

MIC [1] [µg/mL]	MIC [2] [µg/mL]	MIC [3] [µg/mL]	MIC [4] [µg/mL]	MIC [5] [µg/mL]	SMILES
0.06 (≈ 0.159 µM)	0.015 (≈ 0.0397 µM)	0.015 (≈ 0.0397 µM)	0.015 (≈ 0.0397 µM)	0.015 (≈ 0.0397 µM)	CN1CCN(c2c(F)c(N)c3c(=O)c(C(=O)O)cn4c3c2OCN4C)CC1 [Beispiel 2, 8-Amino-9-fluor-3-methyl-10-(4-methyl-1-piperazinyl)-7-oxo-2,3-dihydro-7H-pyrido[1,2,3-d,e][1,3,4]benzoxadiazin-6-carbonsäure]
0.12 (≈ 0.318 µM)	0.06 (≈ 0.159 µM)	0.06 (≈ 0.159 µM)	0.015 (≈ 0.0397 µM)	0.015 (≈ 0.0397 µM)	CC1CN(c2c(F)c(N)c3c(=O)c(C(=O)O)cn4c3c2OCN4C)CCN1 (centres unmarked) [Beispiel 3, 8-Amino-9-fluor-3-methyl-10-(3-methyl-1-piperazinyl)-7-oxo-2,3-dihydro-7H-pyrido[1,2,3-d,e][1,3,4]benzoxadiazin-6-carbonsäure]
0.25 (≈ 0.686 µM)	0.015 (≈ 0.0412 µM)	0.03 (≈ 0.0823 µM)	0.015 (≈ 0.0412 µM)	0.015 (≈ 0.0412 µM)	CN1COc2c(N3CCC(O)C3)c(F)c(N)c3c(=O)c(C(=O)O)cn1c23 (centres unmarked) [Beispiel 5, 8-Amino-9-fluor-3-methyl-10-(3-hydroxy-1-pyrrolidinyl)-7-oxo-2,3-dihydro-7H-pyrido[1,2,3-d,e][1,3,4]benzoxadiazin-6-carbonsäure]
0.12 (≈ 0.308 µM)	0.06 (≈ 0.154 µM)	0.06 (≈ 0.154 µM)	0.015 (≈ 0.0385 µM)	0.015 (≈ 0.0385 µM)	CN1C[C@@H]2C[C@H]1CN2c1c(F)c(N)c2c(=O)c(C(=O)O)cn3c2c1OCN3C [Beispiel 10]

From patent EP0683169A1, “8-Amino-pyrido 1,2,3-de 1,3,4 benzoxadiazine derivatives, and antibacterial agents containing them” (BAYER AG, priority 1994, dated 1995)
